Test results reported in ChEMBL document CHEMBL5244219, “Recent developments of quinolone-based derivatives and their activities against Escherichia coli” (Eur J Med Chem, 2018).
Converted amounts (≈) assume the structure as drawn.

What follows are compounds tested on Escherichia coli (assay: Antibacterial activity against Escherichia coli assessed as bacterial growth inhibition). Conditions: not given.
Type: functional

MIC | Structure (SMILES)
0.12 µg/mL (≈ 0.254 µM) | CC1Cn2cc(C(=O)O)c(=O)c3cc(F)c(N4CCN(Cc5cccc(F)c5)CC4)c(c32)S1 (stereo not drawn)
0.12 µg/mL (≈ 0.23 µM) | CC1Cn2cc(C(=O)O)c(=O)c3cc(F)c(N4CCN(Cc5ccccc5C(F)(F)F)CC4)c(c32)S1 (stereo not drawn)
0.12 µg/mL (≈ 0.23 µM) | CC1Cn2cc(C(=O)O)c(=O)c3cc(F)c(N4CCN(S(=O)(=O)c5ccc(F)cc5)CC4)c(c32)S1 (stereo not drawn)
0.025 µg/mL (≈ 0.0623 µM) | C[C@H]1COc2c(N3CCC4(CCN(C)C4)C3)c(F)cc3c(=O)c(C(=O)O)cn1c23 (stereo partly drawn)
0.12 µg/mL (≈ 0.305 µM) | O=C(O)c1cn2c3c(c(Cl)c(F)cc3c1=O)SC(c1ccccc1F)C2 (stereo not drawn)
≤ 0.04 µg/mL | O=C(O)c1cn([C@@H]2C[C@@H]2F)c2cc(N3CCN(Cn4nc(-c5ccccc5O)n(-c5ccccc5)c4=S)CC3)c(F)cc2c1=O
1.6 µg/mL (≈ 4.77 µM) | CC(=O)c1cc2ccccc2n(/N=C/c2ccccc2[N+](=O)[O-])c1=O
1.6 µg/mL (≈ 4.93 µM) | CC(=O)c1cc2ccccc2n(/N=C/c2ccccc2Cl)c1=O
0.12 µg/mL (≈ 0.307 µM) | CC1Cn2cc(C(=O)O)c(=O)c3cc(F)c(N4C(C)CNCC4C)c(c32)S1 (stereo not drawn)
0.12 µg/mL (≈ 0.318 µM) | CC1Cn2cc(C(=O)O)c(=O)c3cc(F)c(N4CCN(C)CC4)c(c32)S1 (stereo not drawn)
≤ 0.04 µg/mL | COc1cc(-c2nn(CN3CCN(c4cc5c(cc4F)c(=O)c(C(=O)O)cn5[C@@H]4C[C@@H]4F)CC3)c(=S)n2-c2ccccc2)cc(OC)c1OC
0.12 µg/mL (≈ 0.262 µM) | CN1CCN(c2c(F)cc3c(=O)c(C(=O)O)cn4c3c2SC(c2ccc(F)cc2)C4)CC1 (stereo not drawn)
0.12 µg/mL (≈ 0.307 µM) | CC1Cn2cc(C(=O)O)c(=O)c3cc(F)c(N4CCN(C=O)CC4)c(c32)S1 (stereo not drawn)
1.6 µg/mL (≈ 4.77 µM) | CC(=O)c1cc2ccccc2n(/N=C/c2cccc([N+](=O)[O-])c2)c1=O
≤ 0.04 µg/mL | O=C(O)c1cn([C@@H]2C[C@@H]2F)c2cc(N3CCN(Cn4nc(-c5ccncc5)n(-c5ccccc5)c4=S)CC3)c(F)cc2c1=O
1.6 µg/mL (≈ 4.33 µM) | CC(=O)c1cc2cc(Cl)ccc2n(/N=C/c2ccccc2[N+](=O)[O-])c1=O
0.12 µg/mL (≈ 0.262 µM) | CC1Cn2cc(C(=O)O)c(=O)c3cc(F)c(N4CCN(c5ccc(F)cc5)CC4)c(c32)S1 (stereo not drawn)
0.12 µg/mL (≈ 0.382 µM) | CC1Cn2cc(C(=O)O)c(=O)c3cc(F)c(Cl)c(c32)S1 (stereo not drawn)
0.12 µg/mL (≈ 0.347 µM) | CC1Cn2cc(C(=O)O)c(=O)c3cc(F)c(-n4ccnc4)c(c32)S1 (stereo not drawn)
0.12 µg/mL (≈ 0.245 µM) | CC1Cn2cc(C(=O)O)c(=O)c3cc(F)c(N4CCN(Cc5ccc(F)cc5F)CC4)c(c32)S1 (stereo not drawn)

MIC | Structure (SMILES)
0.12 µg/mL (≈ 0.344 µM) | CC1Cn2cc(C(=O)O)c(=O)c3cc(F)c(N4CCCC4)c(c32)S1 (stereo not drawn)
0.12 µg/mL (≈ 0.318 µM) | CC1Cn2cc(C(=O)O)c(=O)c3cc(F)c(N4CCCNCC4)c(c32)S1 (stereo not drawn)
1.6 µg/mL (≈ 3.86 µM) | COc1cc(/C=N/n2c(=O)c(C(C)=O)cc3cc(Cl)ccc32)cc(OC)c1OC
1.6 µg/mL (≈ 5.26 µM) | CC(=O)c1cc2ccccc2n(/N=C/c2ccc(C)cc2)c1=O
≤ 0.04 µg/mL | COc1cc(OC)cc(-c2nn(CN3CCN(c4cc5c(cc4F)c(=O)c(C(=O)O)cn5[C@@H]4C[C@@H]4F)CC3)c(=S)n2Cc2ccccc2)c1
1.6 µg/mL (≈ 4.7 µM) | CC(=O)c1cc2cc(Cl)ccc2n(/N=C/c2ccc(O)cc2)c1=O
≤ 0.04 µg/mL | O=C(O)c1cn([C@@H]2C[C@@H]2F)c2cc(N3CCN(Cn4nc(-c5ccc6ccccc6c5)n(Cc5ccccc5)c4=S)CC3)c(F)cc2c1=O
≤ 0.04 µg/mL | COc1ccc(-c2nn(CN3CCN(c4cc5c(cc4F)c(=O)c(C(=O)O)cn5[C@@H]4C[C@@H]4F)CC3)c(=S)n2-c2ccccc2)cc1OC
0.12 µg/mL (≈ 0.296 µM) | CCNCC1CCN(c2c(F)cc3c(=O)c(C(=O)O)cn4c3c2SC(C)C4)C1 (stereo not drawn)
0.12 µg/mL (≈ 0.305 µM) | O=C(O)c1cn2c3c(c(Cl)c(F)cc3c1=O)SC(c1ccc(F)cc1)C2 (stereo not drawn)
≤ 0.04 µg/mL | COc1cc(OC)cc(-c2nn(CN3CCN(c4cc5c(cc4F)c(=O)c(C(=O)O)cn5[C@@H]4C[C@@H]4F)CC3)c(=S)n2-c2ccccc2)c1
1.6 µg/mL (≈ 4.21 µM) | CC(=O)c1cc2cc([N+](=O)[O-])ccc2n(/N=C/c2cccc([N+](=O)[O-])c2)c1=O
0.12 µg/mL (≈ 0.272 µM) | CC1Cn2cc(C(=O)O)c(=O)c3cc(F)c(N4CCN(c5ccccn5)CC4)c(c32)S1 (stereo not drawn)
0.25 µg/mL (≈ 0.688 µM) | CN1CCN(c2c(F)cc3c(=O)c(C(=O)O)cn4c3c2SCC4)CC1 [RUFLOXACIN]
1.6 µg/mL (≈ 4.72 µM) | CC(=O)c1cc2cc(Cl)ccc2n(/N=C/c2ccc(C)cc2)c1=O
0.12 µg/mL (≈ 0.305 µM) | O=C(O)c1cn2c3c(c(Cl)c(F)cc3c1=O)SC(c1cccc(F)c1)C2 (stereo not drawn)
1.6 µg/mL (≈ 3.76 µM) | COc1cc(/C=N/n2c(=O)c(C(C)=O)cc3cc([N+](=O)[O-])ccc32)cc(OC)c1OC
0.12 µg/mL (≈ 0.271 µM) | O=C(O)c1cn2c3c(c(N4CCNCC4)c(F)cc3c1=O)SC(c1ccc(F)cc1)C2 (stereo not drawn)
1.6 µg/mL (≈ 5.22 µM) | CC(=O)c1cc2ccccc2n(/N=C/c2ccc(O)cc2)c1=O

Structure (SMILES) | MIC
CC1Cn2cc(C(=O)O)c(=O)c3cc(F)c(N4CCNCC4)c(c32)S1 (stereo not drawn) | 0.25 µg/mL (≈ 0.688 µM)
CC1(C)S[C@@H]2[C@H](NC(=O)[C@H](N)c3ccc(O)cc3)C(=O)N2[C@H]1C(=O)O [AMOXICILLIN] | 2 µg/mL (≈ 5.47 µM)

Each compound was assayed on Escherichia coli (assay: Antibacterial activity against Escherichia coli assessed as bacterial growth inhibition measured after 18 to 24 hrs by broth microdilution method). Conditions: time 18-24 hrs.
Type: functional

MIC | Structure (SMILES)
< 0.05 µg/mL | N[C@@H]1[C@H]2CN(c3cc4c(cc3F)c(=O)c(C(=O)O)cn4-c3ccc(O)cc3)C[C@@H]12
< 0.05 µg/mL | CN1CCC2CN(c3nc4c(cc3F)c(=O)c(C(=O)O)cn4-c3ccc(O)cc3)CC21 (stereo not drawn)
< 0.05 µg/mL | C[C@H](N)[C@H]1CCN(c2cc3c(cc2F)c(=O)c(C(=O)O)cn3-c2ccc(O)cc2)C1
< 0.05 µg/mL | O=C(O)c1cn(-c2ccc(O)cc2)c2nc(N3CCNCC3)c(F)cc2c1=O
< 0.05 µg/mL | O=C(O)c1cn(-c2ccc(O)cc2)c2nc(N3CC4CC3CN4)c(F)cc2c1=O (stereo not drawn)
< 0.05 µg/mL | N[C@@H]1CCC[C@@H]2CN(c3nc4c(cc3F)c(=O)c(C(=O)O)cn4-c3ccc(O)cc3)C[C@@H]21
< 0.05 µg/mL | CC1CNCCN1c1nc2c(cc1F)c(=O)c(C(=O)O)cn2-c1ccc(O)cc1 (stereo not drawn)
< 0.05 µg/mL | N[C@@H]1CN(c2nc3c(cc2F)c(=O)c(C(=O)O)cn3-c2ccc(O)cc2)CC12CC2
< 0.05 µg/mL | C[C@H]1CN(c2cc3c(cc2F)c(=O)c(C(=O)O)cn3-c2ccc(O)cc2)C[C@H]1N
< 0.05 µg/mL | N[C@@H]1CCC[C@@H]2CN(c3cc4c(cc3F)c(=O)c(C(=O)O)cn4-c3ccc(O)cc3)C[C@@H]21
< 0.05 µg/mL | NCC1CCN(c2cc3c(cc2F)c(=O)c(C(=O)O)cn3-c2ccc(O)cc2)C1 (stereo not drawn)
< 0.05 µg/mL | N[C@@H]1[C@H]2CN(c3nc4c(cc3F)c(=O)c(C(=O)O)cn4-c3ccc(O)cc3)C[C@@H]12
< 0.05 µg/mL | N[C@@H]1CN(c2cc3c(cc2F)c(=O)c(C(=O)O)cn3-c2ccc(O)cc2)CC12CC2
< 0.05 µg/mL | C[C@H](N)[C@@H]1CCN(c2cc3c(cc2F)c(=O)c(C(=O)O)cn3-c2ccc(O)cc2)C1
< 0.05 µg/mL | COc1c(N2C[C@@H]3[C@@H](N)[C@@H]3C2)c(F)cc2c(=O)c(C(=O)O)cn(-c3ccc(O)cc3)c12
< 0.05 µg/mL | C[C@H](N)[C@@H]1CCN(c2nc3c(cc2F)c(=O)c(C(=O)O)cn3-c2ccc(O)cc2)C1
< 0.05 µg/mL | COc1c(N2CCC(CN)C2)c(F)cc2c(=O)c(C(=O)O)cn(-c3ccc(O)cc3)c12 (stereo not drawn)
< 0.05 µg/mL | C[C@H](N)[C@H]1CCN(c2nc3c(cc2F)c(=O)c(C(=O)O)cn3-c2ccc(O)cc2)C1
< 0.05 µg/mL | COc1c(N2CCC(N)C2)c(F)cc2c(=O)c(C(=O)O)cn(-c3ccc(O)cc3)c12 (stereo not drawn)
< 0.05 µg/mL | COc1c(N2CC3CC2CN3)c(F)cc2c(=O)c(C(=O)O)cn(-c3ccc(O)cc3)c12 (stereo not drawn)
< 0.05 µg/mL | C[C@@H]1C[C@H](N)CN1c1cc2c(cc1F)c(=O)c(C(=O)O)cn2-c1ccc(O)cc1
< 0.05 µg/mL | C[C@@H]1CN(c2nc3c(cc2F)c(=O)c(C(=O)O)cn3-c2ccc(O)cc2)C[C@H]1N
< 0.05 µg/mL | N[C@H]1CN(c2cc3c(cc2F)c(=O)c(C(=O)O)cn3-c2ccc(O)cc2)CC12CC2
< 0.05 µg/mL | NCC1CCN(c2nc3c(cc2F)c(=O)c(C(=O)O)cn3-c2ccc(O)cc2)C1 (stereo not drawn)

MIC | Structure (SMILES)
< 0.05 µg/mL | C[C@H]1CN(c2nc3c(cc2F)c(=O)c(C(=O)O)cn3-c2ccc(O)cc2)C[C@H]1N
< 0.05 µg/mL | NC1CCN(c2nc3c(cc2F)c(=O)c(C(=O)O)cn3-c2ccc(O)cc2)C1 (stereo not drawn)
< 0.05 µg/mL | O=C(O)c1cn(-c2ccc(O)cc2)c2cc(N3CCNCC3)c(F)cc2c1=O
< 0.05 µg/mL | COc1c(N2CC3CCN(C)C3C2)c(F)cc2c(=O)c(C(=O)O)cn(-c3ccc(O)cc3)c12 (stereo not drawn)
< 0.05 µg/mL | COc1c(N2C[C@@H](C)[C@H](N)C2)c(F)cc2c(=O)c(C(=O)O)cn(-c3ccc(O)cc3)c12
< 0.05 µg/mL | C[C@@H]1CN(c2cc3c(cc2F)c(=O)c(C(=O)O)cn3-c2ccc(O)cc2)C[C@H](C)N1
< 0.05 µg/mL | C[C@@H](N)[C@H]1CCN(c2cc3c(cc2F)c(=O)c(C(=O)O)cn3-c2ccc(O)cc2)C1
< 0.05 µg/mL | COc1c(N2C[C@@H](N)[C@@H](C)C2)c(F)cc2c(=O)c(C(=O)O)cn(-c3ccc(O)cc3)c12
< 0.05 µg/mL | N[C@H]1CN(c2nc3c(cc2F)c(=O)c(C(=O)O)cn3-c2ccc(O)cc2)CC12CC2
< 0.05 µg/mL | COc1c(N2CC3CCCNC3C2)c(F)cc2c(=O)c(C(=O)O)cn(-c3ccc(O)cc3)c12 (stereo not drawn)
< 0.05 µg/mL | COc1c(N2CCN(C)CC2)c(F)cc2c(=O)c(C(=O)O)cn(-c3ccc(O)cc3)c12
< 0.05 µg/mL | C[C@@H]1CN(c2nc3c(cc2F)c(=O)c(C(=O)O)cn3-c2ccc(O)cc2)C[C@H](C)N1
< 0.05 µg/mL | C[C@@H](N)[C@H]1CCN(c2nc3c(cc2F)c(=O)c(C(=O)O)cn3-c2ccc(O)cc2)C1
< 0.05 µg/mL | COc1c(N2CCNCC2)c(F)cc2c(=O)c(C(=O)O)cn(-c3ccc(O)cc3)c12
< 0.05 µg/mL | CN1CCC2CN(c3cc4c(cc3F)c(=O)c(C(=O)O)cn4-c3ccc(O)cc3)CC21 (stereo not drawn)
< 0.05 µg/mL | O=C(O)c1cn(-c2ccc(O)cc2)c2cc(N3CC4CCCNC4C3)c(F)cc2c1=O (stereo not drawn)
< 0.05 µg/mL | NC1CCN(c2cc3c(cc2F)c(=O)c(C(=O)O)cn3-c2ccc(O)cc2)C1 (stereo not drawn)
< 0.05 µg/mL | O=C(O)c1cn(-c2ccc(O)cc2)c2cc(N3CC4CC3CN4)c(F)cc2c1=O (stereo not drawn)
< 0.05 µg/mL | CN1CCN(c2nc3c(cc2F)c(=O)c(C(=O)O)cn3-c2ccc(O)cc2)CC1
< 0.05 µg/mL | COc1c(N2C[C@@H](N)C3(CC3)C2)c(F)cc2c(=O)c(C(=O)O)cn(-c3ccc(O)cc3)c12
< 0.05 µg/mL | C[C@@H]1CN(c2cc3c(cc2F)c(=O)c(C(=O)O)cn3-c2ccc(O)cc2)C[C@H]1N
< 0.05 µg/mL | O=C(O)c1cn(-c2ccc(O)cc2)c2nc(N3CC4CCCNC4C3)c(F)cc2c1=O (stereo not drawn)
< 0.05 µg/mL | COc1c(N2C[C@@H](C)N[C@@H](C)C2)c(F)cc2c(=O)c(C(=O)O)cn(-c3ccc(O)cc3)c12
